Tests used:
Format in all cases: cell-based
[1] = tested on: Salmonella Enteritidis IF03313; assay: Permeability of pathogenic microbes when treatment sheets were laid on vomit; conditions: 1000 ppm available chlorine
Text: (§1) 1) Chlorous acid aqueous solution formulation (see Example 1: Table 11) Treatment sheet (material: 100% cotton): (about 27×40 cm) *Impregnated at a ratio of weight of treatment sheet (g): amount of liquid (ml)=1:3 2) Imitation vomit (hereinafter, referred to as vomit) Miso solution: adjusted to pH 2 with hydrochloric acid 3) Test Microbes that were used E. coli: Escherichia coli IF03927 Staphylococcus aureus: Staphylococcus aureus IF0 12732 Thermoduric Microbes (Bacillus cereus): Bacillus cereus NBRC15305 Microbes of the genus Salmonella: Salmonella Enteritidis IF03313 Enterohemorrhagic Escherichia coli 0157: Escherichia coli 0157 Enterohemorrhagic Escherichia coli 0111: Escherichia coli 0111 Enterohemorrhagic Escherichia coli 026: Escherichia coli O26
(§2) Permeability of pathogenic microbes into a treatment sheet when treating vomit was examined to compare effects of preventing secondary contamination. (1) Imitation vomit is spread in an area about the size of an A4 sheet. (2) 30 agent solution-containing treatment sheets were laid thereon and left standing for 10 minutes. (3) Treatment sheets were removed one at a time from the top. After diluting with saline, the sample was spread in a petri dish and cultured.

[2] = tested on: Enterohemorrhagic Escherichia coli O157; assay: as above; conditions: 1000 ppm available chlorine
Text: as §1, §2

[3] = tested on: Enterohemorrhagic Escherichia coli O111; assay: as above; conditions: 1000 ppm available chlorine
Text: as §1, §2

[4] = tested on: Enterohemorrhagic Escherichia coli O26; assay: as above; conditions: 1000 ppm available chlorine
Text: as §1, §2

[5] = tested on: Bacillus cereus NBRC15305; assay: Sterilizing effect on floor surface after wiping off imitation vomit, carpet
Text: (§3) 1) Chlorous acid aqueous solution formulation (see Example 1: Table 11) Treatment sheet (material: 100% cotton): (about 27×40 cm) *Impregnated at a ratio of weight of treatment sheet (g): amount of liquid (ml)=1:3 2) Imitation vomit Miso solution: adjusted to pH of 2 with hydrochloric acid 3) Test Microbes that were Used E. coli: Escherichia coli IF03927 Staphylococcus aureus: Staphylococcus aureus IF0 12732 Thermoduric Microbes (Bacillus cereus): Bacillus cereus NBRC15305 Microbes of the genus Salmonella: Salmonella Enteritidis IF03313 Enterohemorrhagic Escherichia coli O157: Escherichia coli O157 Enterohemorrhagic Escherichia coli O111: Escherichia coli O111 Enterohemorrhagic Escherichia coli O26: Escherichia coli O26
(§4) (1) Imitation vomit was spread in an area about the size of an A4 sheet. (2) 5 dry sheets were laid thereon. (3) An agent solution was poured on the dry sheets to wipe off the imitation vomit. (4) A cotton swab was soaked with sterile saline. A portion where imitation vomit was spread was scrubbed with the cotton swab to collect microbes remaining on the floor. After suspending in saline, the solution was spread on a petri dish and cultured. The number of each of the microbes was measured. (5) Test operations 3 and 4 were repeated a total of 7 times (repeated until the imitation vomit could be removed completely).

[6] = tested on: Enterohemorrhagic Escherichia coli O26; assay: as above; conditions: 1000 ppm available chlorine
Text: as §3, §4

[7] = tested on: E. coli: Escherichia coli IF03927; assay: as above; conditions: 1000 ppm available chlorine
Text: as §3, §4

[8] = tested on: Staphylococcus aureus IF0 12732; assay: as above; conditions: 1000 ppm available chlorine
Text: as §3, §4

[9] = stored at 25° C. Day 0, 1000 ppm available chlorine
[10] = stored at 25° C. Day 7, Sodium Hypochlorite, 0 ppm

## OCl [Sodium Hypochlorite, sodium hypochlorite]
[1]; Day 0 at 25° C.
  Microbe count, 1 sheet laid on imitation vomit: 2.0 × 10^2
  Microbe count, 2 sheets laid on imitation vomit: <10
  Microbe count, 3 sheets laid on imitation vomit: <10
  Microbe count, 4 sheets laid on imitation vomit: <10
  Microbe count, 5 sheets laid on imitation vomit: <10
  Microbe count, 6 sheets laid on imitation vomit: <10
  Microbe count, 8 sheets laid on imitation vomit: <10
  Microbe count, 10 sheets laid on imitation vomit: <10
  Microbe count, 20 sheets laid on imitation vomit: <10
  Microbe count, 30 sheets laid on imitation vomit: <10
[1]; Day 7 at 25° C.
  Microbe count, 1 sheet laid on imitation vomit: >10^6
  Microbe count, 2 sheets laid on imitation vomit: >10^6
  Microbe count, 3 sheets laid on imitation vomit: >10^6
  Microbe count, 4 sheets laid on imitation vomit: >10^6
  Microbe count, 5 sheets laid on imitation vomit: >10^6
  Microbe count, 6 sheets laid on imitation vomit: >10^6
  Microbe count, 8 sheets laid on imitation vomit: 1.1 × 10^4
  Microbe count, 10 sheets laid on imitation vomit: 7.1 × 10^2
  Microbe count, 20 sheets laid on imitation vomit: <10
  Microbe count, 30 sheets laid on imitation vomit: <10
[2]; Day 0 at 25° C.
  Microbe count, 1 sheet laid on imitation vomit: <10
  Microbe count, 2 sheets laid on imitation vomit: <10
  Microbe count, 3 sheets laid on imitation vomit: <10
  Microbe count, 4 sheets laid on imitation vomit: <10
  Microbe count, 5 sheets laid on imitation vomit: <10
  Microbe count, 6 sheets laid on imitation vomit: <10
  Microbe count, 8 sheets laid on imitation vomit: <10
  Microbe count, 10 sheets laid on imitation vomit: <10
  Microbe count, 20 sheets laid on imitation vomit: <10
  Microbe count, 30 sheets laid on imitation vomit: <10
[2]; Day 7 at 25° C.
  Microbe count, 1 sheet laid on imitation vomit: >10^6
  Microbe count, 2 sheets laid on imitation vomit: >10^6
  Microbe count, 3 sheets laid on imitation vomit: >10^6
  Microbe count, 4 sheets laid on imitation vomit: >10^6
  Microbe count, 5 sheets laid on imitation vomit: >10^6
  Microbe count, 6 sheets laid on imitation vomit: >10^6
  Microbe count, 8 sheets laid on imitation vomit: 1.1 × 10^4
  Microbe count, 10 sheets laid on imitation vomit: 7.1 × 10^2
  Microbe count, 20 sheets laid on imitation vomit: <10
  Microbe count, 30 sheets laid on imitation vomit: <10
[3]; Day 0 at 25° C.
  Microbe count, 1 sheet laid on imitation vomit: <10
  Microbe count, 2 sheets laid on imitation vomit: <10
  Microbe count, 3 sheets laid on imitation vomit: <10
  Microbe count, 4 sheets laid on imitation vomit: <10
  Microbe count, 5 sheets laid on imitation vomit: <10
  Microbe count, 6 sheets laid on imitation vomit: <10
  Microbe count, 8 sheets laid on imitation vomit: <10
  Microbe count, 10 sheets laid on imitation vomit: <10
  Microbe count, 20 sheets laid on imitation vomit: <10
  Microbe count, 30 sheets laid on imitation vomit: <10
[3]; Day 7 at 25° C.
  Microbe count, 1 sheet laid on imitation vomit: >10^6
  Microbe count, 2 sheets laid on imitation vomit: >10^6
  Microbe count, 3 sheets laid on imitation vomit: >10^6
  Microbe count, 4 sheets laid on imitation vomit: >10^6
  Microbe count, 5 sheets laid on imitation vomit: >10^6
  Microbe count, 6 sheets laid on imitation vomit: >10^6
  Microbe count, 8 sheets laid on imitation vomit: >10^6
  Microbe count, 10 sheets laid on imitation vomit: >10^6
  Microbe count, 20 sheets laid on imitation vomit: >10^6
  Microbe count, 30 sheets laid on imitation vomit: >10^6
[4]; Day 0 at 25° C.
  Microbe count, 1 sheet laid on imitation vomit: <10
  Microbe count, 2 sheets laid on imitation vomit: <10
  Microbe count, 3 sheets laid on imitation vomit: <10
  Microbe count, 4 sheets laid on imitation vomit: <10
  Microbe count, 5 sheets laid on imitation vomit: <10
  Microbe count, 6 sheets laid on imitation vomit: <10
  Microbe count, 8 sheets laid on imitation vomit: <10
  Microbe count, 10 sheets laid on imitation vomit: <10
  Microbe count, 20 sheets laid on imitation vomit: <10
  Microbe count, 30 sheets laid on imitation vomit: <10
[4]; Day 7 at 25° C.
  Microbe count, 1 sheet laid on imitation vomit: >10^6
  Microbe count, 2 sheets laid on imitation vomit: >10^6
  Microbe count, 3 sheets laid on imitation vomit: >10^6
  Microbe count, 4 sheets laid on imitation vomit: >10^6
  Microbe count, 5 sheets laid on imitation vomit: >10^6
  Microbe count, 6 sheets laid on imitation vomit: >10^6
  Microbe count, 8 sheets laid on imitation vomit: >10^6
  Microbe count, 10 sheets laid on imitation vomit: >10^6
  Microbe count, 20 sheets laid on imitation vomit: >10^6
  Microbe count, 30 sheets laid on imitation vomit: >10^6
[5]; [9]
  Number of Times Wiped 1 Time (remaining microbes): <10
  Number of Times Wiped 2 Times (remaining microbes): <10
  Number of Times Wiped 3 Times (remaining microbes): <10
[5]; [10]
  Number of Times Wiped 1 Time (remaining microbes): 6.7 × 10^3
  Number of Times Wiped 2 Times (remaining microbes): 5.2 × 10^3
  Number of Times Wiped 3 Times (remaining microbes): 4.9 × 10^3
  Number of Times Wiped 7 Times (remaining microbes): 2.0 × 10^3
[6]; Day 0 at 25° C.
  Microbes remaining on floor surface, wiped 1 Time: <10
  Microbes remaining on floor surface, wiped 2 Times: <10
  Microbes remaining on floor surface, wiped 3 Times: <10
[6]; Day 7 at 25° C.
  Microbes remaining on floor surface, wiped 1 Time: 8.8 × 10^3
  Microbes remaining on floor surface, wiped 2 Times: 4.9 × 10^3
  Microbes remaining on floor surface, wiped 3 Times: 3.0 × 10^3
[7]; stored at 25° C. Day 0
  Number of Times Wiped 1 Time (remaining microbes): <10
  Number of Times Wiped 2 Times (remaining microbes): <10
  Number of Times Wiped 3 Times (remaining microbes): <10
[7]; stored at 25° C. Day 7
  Number of Times Wiped 1 Time (remaining microbes): <10
  Number of Times Wiped 2 Times (remaining microbes): <10
  Number of Times Wiped 3 Times (remaining microbes): <10
[8]; stored at 25° C. Day 0
  Number of Times Wiped 1 Time (remaining microbes): <10
  Number of Times Wiped 2 Times (remaining microbes): <10
  Number of Times Wiped 3 Times (remaining microbes): <10
[8]; stored at 25° C. Day 7
  Number of Times Wiped 1 Time (remaining microbes): <10
  Number of Times Wiped 2 Times (remaining microbes): <10
  Number of Times Wiped 3 Times (remaining microbes): <10

Reference: patent US20170015555A1, “LONG-TERM PRESERVATION AND NOVEL APPLICATION OF CHLOROUS ACID AQUEOUS SOLUTION FORMULATION” (priority 2013, published 2017)
